One experiment relates to naïve human CD8 T cells. Description: Human CD8 T cells IFN-γ assay.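 Also: Naïve human CD8 T cells stimulated with plate-bound anti-CD3 and soluble anti-CD28, IFN-γ in supernatant quantified by AlphaLISA and converted to pg/mL.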 The following applies: read-out: HuCD8 INFG Normalized EC50. The format is cell-based.
A further experiment concerns the target T1, human DGKα (Homo sapiens, UniProt P23743).
T1 construct: TVMV protease cleavage site (C); Hexa-His (C); made in house; host or cells: Sf9 insect cells (baculovirus, Bac-to-Bac)
Description: DGKα LIPGLO assay (extruded liposome substrate), in vitro DGK inhibition. The format is biochemical. The following applies: liposome (LIPGLO) assay; read-out: DGKa LIPGLO IC50.

The test system of the next experiment is Human venous whole blood. Description: Human whole blood IFN-γ assay.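 Also: blood from healthy donors exposed to compound for 1 h before stimulation with anti-CD3 and anti-CD28 at 1 µg/mL each, IFN-γ quantified in supernatant by AlphaLISA.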 It is filed as cell-based.
The next experiment deals with T2, human DGKζ (Homo sapiens, UniProt Q13574).
T2 construct: TVMV protease cleavage site (C); Hexa-His (C); made in house; host or cells: Sf9 insect cells (baculovirus, Bac-to-Bac)
T2 sequence (Q13574 with tags, fused parts or gaps isoform Q13574-4): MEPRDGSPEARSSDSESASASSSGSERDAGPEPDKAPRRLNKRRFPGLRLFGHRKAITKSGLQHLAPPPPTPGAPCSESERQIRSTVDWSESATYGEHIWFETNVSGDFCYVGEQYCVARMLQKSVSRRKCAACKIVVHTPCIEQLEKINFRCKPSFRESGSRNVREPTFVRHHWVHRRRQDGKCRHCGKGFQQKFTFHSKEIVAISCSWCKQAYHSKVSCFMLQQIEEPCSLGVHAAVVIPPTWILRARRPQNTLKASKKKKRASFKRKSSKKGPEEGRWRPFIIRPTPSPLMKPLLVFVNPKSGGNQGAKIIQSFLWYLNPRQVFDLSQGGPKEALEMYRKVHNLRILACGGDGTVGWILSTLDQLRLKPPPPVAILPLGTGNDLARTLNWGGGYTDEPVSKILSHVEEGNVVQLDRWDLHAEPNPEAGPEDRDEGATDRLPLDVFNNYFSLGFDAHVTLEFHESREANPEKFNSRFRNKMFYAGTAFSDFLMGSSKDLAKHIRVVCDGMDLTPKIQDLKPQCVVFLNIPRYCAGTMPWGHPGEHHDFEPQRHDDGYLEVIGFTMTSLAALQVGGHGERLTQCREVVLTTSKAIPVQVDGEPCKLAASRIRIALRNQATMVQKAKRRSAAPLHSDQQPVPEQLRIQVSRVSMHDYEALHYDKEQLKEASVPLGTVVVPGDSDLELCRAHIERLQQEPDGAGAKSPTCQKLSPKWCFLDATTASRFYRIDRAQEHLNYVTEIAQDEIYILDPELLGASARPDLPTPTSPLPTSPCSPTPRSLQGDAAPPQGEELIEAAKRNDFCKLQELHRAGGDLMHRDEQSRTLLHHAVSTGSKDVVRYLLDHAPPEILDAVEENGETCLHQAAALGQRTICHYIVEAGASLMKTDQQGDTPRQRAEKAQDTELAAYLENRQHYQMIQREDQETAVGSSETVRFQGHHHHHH
Description: DGKζ LIPGLO assay (extruded liposome substrate), in vitro DGK inhibition. It is filed as biochemical. The following applies: liposome (LIPGLO) assay; read-out: DGKz LIPGLO IC50.

The mark [1] stands for this setting: Homo sapiens, T-cell, 20 h, normalized to 3 μM reference compound with anti-CD3 plus anti-CD28 as 100% activation.
Setting [2] is: human whole blood, normalized to 3 μM reference compound with anti-CD3 plus anti-CD28 as 100% activation, read-out: INFg Whole Blood Normalized Agonist EC50.
Setting [3] is: normalized to 3 μM reference compound with anti-CD3 plus anti-CD28 as 100% activation.
The mark [4] stands for this setting: Homo sapiens, 24 h, human whole blood, normalized to 3 μM reference compound with anti-CD3 plus anti-CD28 as 100% activation, read-out: INFg Whole Blood Normalized Agonist EC50.
Setting [5] is: Homo sapiens, human whole blood, normalized to 3 μM reference compound with anti-CD3 plus anti-CD28 as 100% activation, read-out: INFg Whole Blood Normalized Agonist EC50.

Molecules are shown by their SMILES. Like-named read-outs stand apart in the source and are kept apart here.

As a reminder, the EC50 is the concentration needed to bring the measured effect to its halfway point. In general, IC50 refers to the concentration that inhibits the measured activity by half.

T1 sequence (P23743 with tags, fused parts or gaps): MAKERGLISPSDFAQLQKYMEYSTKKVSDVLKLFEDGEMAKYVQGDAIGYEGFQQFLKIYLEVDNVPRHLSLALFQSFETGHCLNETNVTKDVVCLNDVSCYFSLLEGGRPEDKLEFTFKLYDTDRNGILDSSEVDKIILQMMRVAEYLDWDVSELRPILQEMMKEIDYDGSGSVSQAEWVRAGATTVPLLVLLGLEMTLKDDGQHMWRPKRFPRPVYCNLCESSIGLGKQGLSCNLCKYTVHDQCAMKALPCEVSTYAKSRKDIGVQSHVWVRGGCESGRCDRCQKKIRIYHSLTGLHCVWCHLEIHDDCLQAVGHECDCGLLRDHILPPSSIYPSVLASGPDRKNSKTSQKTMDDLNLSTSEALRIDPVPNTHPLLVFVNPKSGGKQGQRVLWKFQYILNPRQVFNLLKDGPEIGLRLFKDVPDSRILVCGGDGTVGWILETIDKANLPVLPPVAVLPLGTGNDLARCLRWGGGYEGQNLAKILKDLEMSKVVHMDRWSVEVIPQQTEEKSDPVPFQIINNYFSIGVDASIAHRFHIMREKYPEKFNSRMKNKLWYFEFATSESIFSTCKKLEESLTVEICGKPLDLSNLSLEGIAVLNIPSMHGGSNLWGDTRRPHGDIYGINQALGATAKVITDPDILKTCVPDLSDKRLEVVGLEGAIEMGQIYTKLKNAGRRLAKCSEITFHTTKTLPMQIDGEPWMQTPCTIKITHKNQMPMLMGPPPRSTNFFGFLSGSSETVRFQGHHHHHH
Description for Human venous whole blood: Human Whole Blood IFN-γ Assay
Human venous whole blood (22.5 μL per well), obtained from healthy donors, was pre-treated with compounds for one hour at 37° C. in a humidified 95% air/5% CO2 incubator. The blood was stimulated with 2.5 μL anti-human CD3 and anti-CD28 mAb at a final concentration of 1 μg/mL each for 24 hours at 37° C. IFN-γ in the supernatants was measured using AlphLISA kit (Cat # AL217).

`C[C@@H]1CN(c2cc(=O)n(C)c3ccc(C#N)nc23)[C@@H](C)CN1C(c1ccc(F)cc1)c1cnsc1` (single isomer, unassigned) [Example 715]: the concentration for a half-maximal effect (EC50) in the experiment with naïve human CD8 T cells (setting [1]) was determined as 42 nM; in the experiment with Human venous whole blood (setting [2]), 680 nM. Moreover, the 50% inhibitory concentration (IC50) on human DGKα stood at 360 nM; at human DGKζ it was 3900 nM.

Consider `Cc1ccc(C(c2cc(C)ccn2)N2C[C@H](C)N(c3cc(=O)n(C)c4ccc(C#N)nc34)C[C@H]2C)cc1` (single isomer, unassigned) [Example 460], for which the concentration for a half-maximal effect (EC50) stood at 27 nM with naïve human CD8 T cells (setting [1]) and 520 nM in the experiment with Human venous whole blood (setting [2]). Also, the IC50 amounted to 30 nM at human DGKα and 38 nM at human DGKζ.

In the case of `Cc1cccc(C(c2ccc(F)cc2)N2C[C@H](C)N(c3cc(=O)n(C)c4ccc(C#N)nc34)C[C@H]2C)n1` (single isomer, unassigned) [Example 204], the EC50 in the experiment on naïve human CD8 T cells (setting [3]) was 12 nM; in the experiment with Human venous whole blood (setting [2]), 620 nM. Further, the figures for the IC50 at human DGKα and at human DGKζ were 1300 nM and 220 nM, respectively.

In the case of `C[C@@H]1CN(c2cc(=O)n(C)c3ccc(C#N)nc23)[C@@H](C)CN1C(c1ccc(F)cc1)c1ncccc1F` (single isomer, unassigned) [Example 187], the values for the EC50 in the experiment with naïve human CD8 T cells (setting [3]) and with Human venous whole blood (setting [2]) were 110 nM and 1400 nM, respectively. For the same molecule, the IC50 on human DGKα came out at 180 nM; at human DGKζ it was 1300 nM.

Consider `COC[C@@H]1CN(c2cc(=O)n(C)c3ccc(C#N)nc23)[C@@H](C)CN1C(c1ccc(F)cc1)c1ccc(F)cc1` [Example 1155, 8-((2S,5S)-4-(bis(4-fluorophenyl)methyl)-5-(methoxymethyl)-2-methylpiperazin-1-yl)-5-methyl-6-oxo-5,6-dihydro-1,5-naphthyridine-2-carbonitrile], for which the EC50 with naïve human CD8 T cells (setting [1]) was 3.5 nM; in the experiment on Human venous whole blood (setting [4]) it was 860 nM. Further, the IC50 at human DGKα turned out to be 1800 nM; at human DGKζ it was 660 nM.

For the molecule `C[C@@H]1CN(c2cc(=O)n(C)c3ccc(C#N)nc23)[C@@H](C)CN1C(c1ccc(F)cc1)c1ccc(C(F)F)cc1` (single isomer, unassigned) [Example 667], the results for the EC50 in the experiment with naïve human CD8 T cells (setting [3]) and with Human venous whole blood (setting [2]) were 27 nM and 850 nM, respectively. In addition, the figures for the concentration for half-maximal inhibition (IC50) on human DGKα and on human DGKζ were 2800 nM and 2700 nM, respectively.

As for `C[C@@H]1CN(c2cc(=O)n(C)c3ccc(C#N)nc23)[C@@H](C)CN1C(c1ccccc1)c1cccc(Cl)c1` (stereo partly drawn) [Example 282, 8-[(2S,5R)-4-[(3-chlorophenyl)(phenyl)methyl]-2,5-dimethylpiperazin-1-yl]-5-methyl-6-oxo-5,6-dihydro-1,5-naphthyridine-2-carbonitrile], the results for the EC50 with naïve human CD8 T cells (setting [1]) and in the experiment on Human venous whole blood (setting [4]) were 69 nM and 3800 nM, respectively. In addition, the IC50 on human DGKα came out at 1200 nM; at human DGKζ it was 940 nM.

`C[C@@H]1CN(c2c(F)c(=O)n(C)c3ccc(C#N)nc23)CCN1C(c1ccc(Cl)cc1)c1ccc(Cl)cc1` [Example 34, (R)-8-(4-(bis(4-chlorophenyl)methyl)-3-methylpiperazin-1-yl)-7-fluoro-5-methyl-6-oxo-5,6-dihydro-1,5-naphthyridine-2-carbonitrile]: the 50% effective concentration (EC50) in the experiment with naïve human CD8 T cells (setting [1]) was 180 nM; with Human venous whole blood (setting [4]) it was 1300 nM. Also, the concentration for half-maximal inhibition (IC50) worked out at 690 nM at human DGKα and 510 nM on human DGKζ.

For the molecule `Cc1ccc(C(c2ccc(Cl)cc2)N2C[C@H](C)N(c3cc(=O)n(C)c4ccc(C#N)nc34)C[C@H]2C)nc1` (single isomer, unassigned) [Example 363], the concentration for a half-maximal effect (EC50) in the experiment with naïve human CD8 T cells (setting [1]) was 99 nM; in the experiment with Human venous whole blood (setting [2]), 130 nM. The IC50 on human DGKα amounted to 150 nM; on human DGKζ, 400 nM.

In the case of `C[C@@H]1CN(c2cc(=O)n(C)c3ccc(C#N)nc23)[C@@H](C)CN1Cc1c(F)cc(Cl)cc1F` [Example 268, 8-[(2S,5R)-4-[(4-chloro-2,6-difluorophenyl)methyl]-2,5-dimethylpiperazin-1-yl]-5-methyl-6-oxo-5,6-dihydro-1,5-naphthyridine-2-carbonitrile], the 50% effective concentration (EC50) in the experiment on naïve human CD8 T cells (setting [1]) stood at 54 nM; in the experiment with Human venous whole blood (setting [4]) it was 1700 nM. Also, the results for the concentration for half-maximal inhibition (IC50) on human DGKα and on human DGKζ were 230 nM and 1200 nM, respectively.

Regarding `C[C@@H]1CN(c2cc(=O)n(C)c3ccc(C#N)nc23)[C@@H](C)CN1C(c1ccccc1)c1ccccc1F` (stereo partly drawn) [Example 285, 8-[(2S,5R)-4-[(2-fluorophenyl)(phenyl)methyl]-2,5-dimethylpiperazin-1-yl]-5-methyl-6-oxo-5,6-dihydro-1,5-naphthyridine-2-carbonitrile], the 50% effective concentration (EC50) stood at 150 nM in the experiment on naïve human CD8 T cells (setting [1]) and 1500 nM in the experiment with Human venous whole blood (setting [4]). The IC50 on human DGKα came to 270 nM; at human DGKζ, 680 nM.

On to `CCc1cc(F)ccc1C(c1ccc(F)cc1)N1C[C@H](C)N(c2cc(=O)n(C)c3ccc(OC)nc23)C[C@H]1C` (single isomer, unassigned) [Example 234], for which the 50% effective concentration (EC50) in the experiment on naïve human CD8 T cells (setting [3]) was determined as 2500 nM; with Human venous whole blood (setting [2]), 20000 nM. In addition, the figures for the IC50 at human DGKα and on human DGKζ were 240000 nM and 8700 nM, respectively.

In the case of `C[C@@H]1CN(c2c(C#N)c(=O)n(C)c3ccc(C#N)nc23)CCN1C(c1ccccc1)c1ccc(Cl)cc1` (single isomer, unassigned) [Example 886], the concentration for a half-maximal effect (EC50) with naïve human CD8 T cells (Homo sapiens, T-cell, 20 h, naïve human CD8 T cells, anti-CD3 plus anti-CD28, 3 μM reference compound = 100% activation) worked out at 9.6 nM; in the experiment on Human venous whole blood (read-out: INFg Whole Blood Normalized Agonist EC50, human whole blood, anti-CD3 plus anti-CD28, 24 hours, 3 μM reference compound = 100% activation) it was 600 nM.

Regarding `C[C@@H]1CN(c2cc(=O)n(C)c3ccc(C#N)nc23)[C@@H](C)CN1C(c1ccc(F)cc1)c1ccccc1F` (stereo partly drawn) [Example 284, 8-[(2S,5R)-4-[(2-fluorophenyl)(4-fluorophenyl)methyl]-2,5-dimethylpiperazin-1-yl]-5-methyl-6-oxo-5,6-dihydro-1,5-naphthyridine-2-carbonitrile], the EC50 in the experiment on naïve human CD8 T cells (setting [1]) was 36 nM; with Human venous whole blood (Homo sapiens, 24 h, read-out: INFg Whole Blood Normalized Agonist EC50, human whole blood, normalized to 3 μM reference compound with anti-CD3 plus anti-CD28 as 100% activation), 780 nM.

Regarding `CCc1cc(F)ccc1C(c1ccc(Cl)cc1)N1C[C@H](C)N(c2cc(=O)n(C)c3ccc(C#N)nc23)C[C@H]1C` (single isomer, unassigned) [Example 225], the concentration giving a half-maximal response (EC50) was found to be 61 nM with naïve human CD8 T cells (setting [1]) and 7600 nM in the experiment on Human venous whole blood (setting [2]). Further, the 50% inhibitory concentration (IC50) on human DGKζ came out at 570 nM.

On to `CCC(c1ccc(F)cc1F)N1C[C@H](C)N(c2cc(=O)n(C)c3ccc(C#N)nc23)C[C@H]1C` (single isomer, unassigned) [Example 338], for which the concentration for a half-maximal effect (EC50) was 20 nM in the experiment with naïve human CD8 T cells (setting [1]) and 130 nM in the experiment on Human venous whole blood (setting [5]).

For the molecule `Cn1c(=O)cc(N2CCN(C(c3ccc(F)cc3)c3ccc(F)cc3)C(C(=O)NC3CC3)C2)c2nc(C#N)ccc21` (racemic) [Example 46, 1-(bis(4-fluorophenyl)methyl)-4-(6-cyano-1-methyl-2-oxo-1,2-dihydro-1,5-naphthyridin-4-yl)-N-cyclopropylpiperazine-2-carboxamide], in the experiment with naïve human CD8 T cells (setting [1]), the EC50 turned out to be 4700 nM. The IC50 on human DGKα is 240000 nM; on human DGKζ it was 3500 nM.

As to `Cn1c(=O)cc(N2CCN(C(c3ccc(F)cc3)c3ccc(F)cc3)C(C(=O)O)C2)c2nc(C#N)ccc21` (centres unmarked) [Example 55, 1-(bis(4-fluorophenyl)methyl)-4-(6-cyano-1-methyl-2-oxo-1,2-dihydro-1,5-naphthyridin-4-yl)piperazine-2-carboxylic acid], the EC50 in the experiment with naïve human CD8 T cells (setting [1]) was found to be 6400 nM. Moreover, the IC50 at human DGKα worked out at 240000 nM; at human DGKζ, 180000 nM.

With `CCC(c1ccc(F)cc1F)N1C[C@H](C)N(c2cc(=O)n(C)c3ccc(C#N)nc23)C[C@H]1C` (mixture of isomers) [Example 337, 8-((2S,5R)-4-(1-(2,4-difluorophenyl)propyl)-2,5-dimethylpiperazin-1-yl)-5-methyl-6-oxo-5,6-dihydro-1,5-naphthyridine-2-carbonitrile], the 50% effective concentration (EC50) with naïve human CD8 T cells (setting [1]) stood at 48 nM; with Human venous whole blood (setting [5]), 440 nM.
